Where only a bound is given, the exact number is not on record here.

For this assay, the target named is IMPDH human type II (Homo sapiens, UniProt P12268). As to the kind of experiment: IMPDH Activity Inhibition Assay (spectrophotometric, NADH formation at 340 nm). The assay is classed as biochemical. The following applies: 37° C., tight-binding equations of Henderson. The procedure: We measured the inhibition constants of the compounds listed in Table II utilizing the following protocol:
IMP dehydrogenase activity was assayed following an adaptation of the method first reported by Magasanik. [Magasanik, B. Moyed, H. S. and Gehring L. B. (1957) J. Biol. Chem. 226, 339]. Enzyme activity was measured spectrophotometrically, by monitoring the increase in absorbance at 340 nm due to the formation of NADH (ε340 is 6220 M^−1 cm^−1). The reaction mixture contained 0.1 M Tris pH 8.0, 0.1 M KCl, 3 mM EDTA, 2 mM DTT, […] and enzyme (IMPDH human type II) at a concentration of 15 to 50 nM. This solution is incubated at 37° C. for 10 minutes. The reaction is started by adding NAD to a final concentration of […] and the initial rate is measured by following the linear increase in absorbance at 340 nm for 10 minutes. For reading in a standard spectrophotometer (path length 1 cm) the final volume in the cuvette is 1.0 ml. The assay has also been adapted to a 96 well microtiter plate format; in this case the concentrations of all the reagents remain the same and the final volume is decreased to 200 μl.
For the analysis of inhibitors, the compound in question is dissolved in DMSO to a final concentration of 20 mM and added to the initial assay mixture for preincubation with the enzyme at a final volume of 2-5% (v/v). The reaction is started by the addition of NAD, and the initial rates measured as above. Ki determinations are made by measuring the initial velocities in the presence of varying amounts of inhibitor and fitting the data using the tight-binding equations of Henderson (Henderson, P. J. F. (1972) Biochem. J. 127, 321].
Ki values are expressed in nM. Category “A” indicates 0.01 to 500 nm activity, category “B” indicates 501-5,000 nm activity, category “C” indicates 5,001 to 15,000 nm activity, category “D” indicates greater than 15,000 nm activity. The designation “ND” is used where a given compound was not tested.

By Ki is commonly meant the dissociation constant of the complex between target and ligand, obtained from inhibition or displacement. A high value points to weaker binding. `COc1cc(Nc2nc3cc(C)c(C)cc3o2)ccc1-c1cnco1` [Compound 17] yielded an inhibition constant Ki of 0.01 to 500 nM. `COc1cc(Nc2nc3cc(C)ccc3o2)ccc1-c1cnco1` [Compound 12] had a Ki of 0.01 to 500 nM.

For `c1ccc(Nc2nc3ccccc3[nH]2)cc1` [Compound 2], the Ki was greater than 15000 nM.

`COC(=O)c1ccc2nc(Nc3ccc(-c4cnco4)c(OC)c3)[nH]c2c1` [Compound 10] showed an inhibition constant Ki of 0.01 to 500 nM.

As to `COc1cc(Nc2nc3ccccc3[nH]2)ccc1C#N` [Compound 15], the Ki fell in the range of 5000 to 15000 nM. As for `COc1ccc(Nc2nc3ccccc3o2)cc1OC` [Compound 19], the figure is greater than 15000 nM; as for `N#Cc1ccc(Nc2nc3ccccc3o2)cc1Cl` [Compound 20], greater than 15000 nM. The compound `COc1cc(Nc2nc3cc(C)ccc3o2)ccc1-c1cnco1` [Compound 22] returned a Ki of 501 to 5000 nM.

`COc1ccccc1Nc1nc2ccccc2s1` [Compound 7] showed an inhibitory constant (Ki) greater than 15000 nM. Turning to `COc1ccc(Nc2nc3ccccc3[nH]2)cc1` [Compound 3], the Ki is greater than 15000 nM. As for `C=CCc1cccc2nc(Nc3ccc(-c4cnco4)c(OC)c3)oc12` [Compound 25], the figure is 0.01 to 500 nM; as for `Clc1cc(Nc2nc3ccccc3o2)ccc1-c1cnco1` [Compound 23], 501 to 5000 nM; as for `COc1ccccc1Nc1nc2ccccc2o1` [Compound 6], greater than 15000 nM.

`COc1cc(Nc2nc3ccc(CO)cc3[nH]2)ccc1-c1cnco1` [Compound 11] came in with a Ki of 501 to 5000 nM. For `COc1cc(Nc2nc3ccccc3[nH]2)ccc1-c1cnco1` [Compound 5], the inhibition constant (Ki) was 501 to 5000 nM. As for `COc1cc(Nc2nc3c(C)cccc3[nH]2)ccc1-c1cnco1` [Compound 16], the figure is 0.01 to 500 nM; as for `COc1cc(Nc2nc3ccccc3o2)ccc1-c1cnco1` [Compound 8], 0.01 to 500 nM; as for `COc1cccc(Nc2nc3ccccc3o2)c1` [Compound 24], greater than 15000 nM. As to `Cc1ccc(Nc2nc3ccccc3[nH]2)cc1` [Compound 4], the inhibition constant Ki is greater than 15000 nM. As for `COc1cc(Nc2nc3ccc(C)cc3o2)ccc1-c1cnco1` [Compound 14], the figure is 0.01 to 500 nM; as for `COc1cc(Nc2nc3ccccc3s2)ccc1C#N` [Compound 13], 5000 to 15000 nM.

With `COc1cc(Nc2nc3ccccc3o2)ccc1C#N` [Compound 21], the inhibition constant Ki was greater than 15000 nM. As for `COc1cc(Nc2nc3ccccc3s2)ccc1-c1cnco1` [Compound 9], the figure is 0.01 to 500 nM. In turn, `c1ccc2oc(Nc3ccc(-c4cnco4)cc3)nc2c1` [Compound 18] came in with an inhibitory constant (Ki) greater than 15000 nM.

Values taken from patent US6518291B1, “Inhibitors of IMPDH enzyme” (Vertex Pharmaceuticals, Incorporated, priority 1997, dated 2003).
